Experimental data: US6514997B2, “Antipicornaviral compounds and compositions, their pharmaceutical uses, and materials for their synthesis” (Agouron Pharmaceuticals, Inc., priority 1999, dated 2003)
Read-outs that look alike come from different tables or passages of the source.

What was measured:
HRV-14 = assay: Antirhinoviral H1-HeLa cell culture assay (XTT cell protection, EC50), HRV-14; assay type: cell-based, human rhinovirus (HRV) serotype-14 in H1-HeLa cells; conditions: Rhinovirus B, HRV14, H1-HeLa
In short: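 XTT dye reduction (450/650 nm) measured survival of H1-HeLa cells two days after HRV-14 infection at m.o.i. 0.13 in the presence of compound, giving EC50. The therapeutic index is CC50 divided by EC50.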

[1] = Cytotoxicity (CC50) in mock-infected H1-HeLa cells, XTT dye reduction; assay type: cell-based, human; conditions: human, H1-HeLa cells, mock-infected; line of HRV-14
In short: (§1)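 XTT dye reduction (formazan, 450/650 nm) in H1-HeLa cells, mock-infected, gave CC50.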

H1-HeLa cells = assay: as above; assay type: cell-based, human
In short: as §1

[2] = tested on: strains of human rhinovirus (HRV); assay: Antirhinoviral H1-HeLa cell culture assay (XTT cell protection, EC50), other HRV strains; assay type: cell-based, human rhinovirus in H1-HeLa cells
Protocol: Antirhinoviral H1-HeLa Cell Culture Assay:
In this cell protection assay, the ability of compounds to protect cells against HRV infection was measured by the XTT dye reduction method, which is described in Weislow et al., J. Natl. Cancer Inst. (1989), vol. 81, 577-586. H1-HeLa cells were infected with HRV-14 at a multiplicity of infection (m.o.i.) of 0.13 (virus particles/cell) or mock-infected with medium only. Infected or mock-infected cells were resuspended at 8×10^5 cells per mL, and incubated with appropriate concentrations of the compounds to be tested. Two days later, XTT/PMS was added to test plates and the amount of formazan produced was quantified spectrophotometrically at 450/650 nm. […] The therapeutic index (TI) was calculated by dividing the CC50 value by the EC50 value.
All strains of human rhinovirus (HRV) for use in this assay were purchased from American Type Culture Collection (ATCC), except for HRV serotype-14 (produced from the infectious cDNA clone constructed by Dr. Robert Rueckert, Institute for Molecular Virology, University of Wisconsin, Madison, Wis.). HRV stocks were propagated and viral assays were performed in H1-HeLa cells (ATCC). Cells were grown in minimal essential medium with 10% fetal bovine serum, available from Life Technologies (Gaithersburg, Md.).

[3] = molecular target: T1, Recombinant rhinovirus 3C protease, serotype 14 (Human rhinovirus 14, UniProt P03303); assay: Inhibition of rhinovirus 3C protease (FRET assay, kobs/[I]), serotype 14; assay type: biochemical; conditions: pH 7.6; HRV-14; read-out: kobs/[I] (3C protease inhibition activity)
T1 construct: Recombinant rhinovirus 3C proteases; made in house
In short: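 kobs/[I] values came from progress curves of reactions started by adding 50-100 nM protease to buffer (50 mM tris pH 7.6, 1 mM EDTA, 2% DMSO) containing compound and ~1 μM quenched DABCYL-EDANS substrate. Rising EDANS fluorescence reported cleavage.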

[4] = H1-HeLa, HRV-1A, read-out: EC50
[5] = Human rhinovirus sp., HRV10, H1-HeLa, HRV-10, read-out: EC50
[6] = Human rhinovirus sp., HRV3, H1-HeLa, HRV-3, read-out: EC50
[7] = Human rhinovirus sp., HRV9, H1-HeLa, HRV-9, read-out: EC50
[8] = Human rhinovirus sp., HRV16, H1-HeLa, HRV-16, read-out: EC50
[9] = Human rhinovirus sp., HRV25, H1-HeLa, HRV-25, read-out: EC50
[10] = Human rhinovirus sp., HRV39, H1-HeLa, HRV-39, read-out: EC50
[11] = Human rhinovirus sp., HRV87, H1-HeLa, HRV-87, read-out: EC50

T1 sequence (P03303 1538-1719): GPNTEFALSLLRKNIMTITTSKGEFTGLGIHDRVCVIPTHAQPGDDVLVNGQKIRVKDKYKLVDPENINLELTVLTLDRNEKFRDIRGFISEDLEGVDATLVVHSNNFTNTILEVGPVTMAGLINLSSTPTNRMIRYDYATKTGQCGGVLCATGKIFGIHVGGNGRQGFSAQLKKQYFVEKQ

SMILES	CC50 at 2 days [1]	CC50 (H1-HeLa cells; line of HRV-1A)	CC50 (H1-HeLa cells; line of HRV-10)	EC50 [2, 4]	EC50 [2, 5]	kinact/KI [3]	EC50 (HRV-14)	CC50 (H1-HeLa cells; line of HRV-2)	CC50 (H1-HeLa cells; line of HRV-3)	CC50 (H1-HeLa cells; line of HRV-9)	CC50 (H1-HeLa cells; line of HRV-16)	CC50 (H1-HeLa cells; line of HRV-25)	CC50 (H1-HeLa cells; line of HRV-39)	CC50 (H1-HeLa cells; line of HRV-87)	EC50 ([2]; H1-HeLa, HRV-2, read-out: EC50)	EC50 [2, 6]	EC50 [2, 7]	EC50 [2, 8]	EC50 [2, 9]	EC50 [2, 10]	also measured
CCOC(=O)/C=C/[C@H](CCC(N)=O)NC(=O)[C@H](Cc1ccccc1)n1cccc(NC(=O)C2SCCS2)c1=O [Compound 10, trans-(2′S,4S)-6-Carbamoyl-4-(2′-{3″-[([1′″,3′″]dithiolane-2′″-carbonyl)amino]-2″-oxo-2″H-pyridin-1″-yl}-3′-phenylpropionylamino)hex-2-enoic Acid Ethyl Ester]	> 10000 nM	> 10000 nM	> 10000 nM	1180 nM	1410 nM	113000 M⁻¹ s⁻¹															EC50 (HRV-14; HRV-14, read-out: EC50): 104 nM
CCOC(=O)/C=C/[C@H](C[C@@H]1CCNC1=O)NC(=O)[C@H](Cc1ccc(F)cc1)n1cccc(NC(=O)c2cc(C)on2)c1=O [Compound 25, trans-(2′S,3′″″S,4S)-4-(3′-(4″-Fluorophenyl)-2′-{3′″-[(5″″-methylisoxazole-3″″-carbonyl)amino]-2′-oxo-2′″H-pyridin-1′″-yl}propionylamino)-5-(2′″″-oxopyrrolidin-3′″″-yl)pent-2-enoic Acid Ethyl Ester]	> 10000 nM	> 10000 nM	> 10000 nM	15 nM	4 nM	1.25e+06 M⁻¹ s⁻¹	2 nM	> 10000 nM	> 10000 nM	> 10000 nM	> 10000 nM	> 10000 nM	> 10000 nM	> 10000 nM	4 nM	4 nM	10 nM	5 nM	22 nM	9 nM	EC50 [2, 11]: 8 nM
CC[C@@H](C(=O)N[C@H](/C=C/C(=O)OC1CCCC1)C[C@@H]1CCNC1=O)n1cccc(NC(=O)c2cc(Cl)on2)c1=O [Compound 29, trans-(2′S,3″″S,4S)-4-(2′-{3″-[(5′″-Chloroisoxazole-3′″-carbonyl)amino]-2″-oxo-2″H-pyridin-1″-yl}butyrylamino)-5-(2″″-oxopyrroldin-3″″-yl)pent-2-enoic Acid Cyclopentyl Ester]	> 10000 nM	> 10000 nM	> 10000 nM	46 nM	46 nM	148000 M⁻¹ s⁻¹	79 nM														
CC[C@@H](C(=O)N[C@H](/C=C/C(=O)OC(C)(C)C)C[C@@H]1CCNC1=O)n1cccc(NC(=O)c2cc(C)on2)c1=O [Compound 34, trans-(2′S,3″″S,4S)-4-(2′-{3″-[(5′″-Methylisoxazole-3′″-carbonyl)amino]-2″-oxo-2″H-pyridin-1″-yl}butyrylamino)-5-(2″″-oxopyrrolidin-3″″-yl)pent-2-enoic Acid tert-Butyl Ester]	> 10000 nM					45100 M⁻¹ s⁻¹	122 nM	> 10000 nM	> 10000 nM	> 10000 nM	> 10000 nM	> 10000 nM	> 10000 nM	> 10000 nM	154 nM	61 nM	593 nM	543 nM	923 nM	441 nM	EC50 [2, 11]: 33 nM
CCOC(=O)/C=C/[C@H](C[C@@H]1CCNC1=O)NC(=O)[C@@H]1CCc2ccc(NC(=O)c3cc(C)on3)c(=O)n21 [Compound 37, trans-(3′S,3′″S,4S)-4-({6′-[(5″-Methylisoxazole-3″-carbonyl)amino]-5′-oxo-1′,2′,3′,5′-tetrahydroindolizine-3′-carbonyl}amino)-5-(2′″-oxopyrrolidin-3′″-yl)-pent-2-enoic Acid Ethyl Ester]	> 10000 nM	> 10000 nM	> 10000 nM	108 nM	41 nM	177000 M⁻¹ s⁻¹	162 nM	> 10000 nM	> 10000 nM	> 10000 nM	> 10000 nM	> 10000 nM	> 10000 nM	> 10000 nM	37 nM	43 nM	121 nM	72 nM		16 nM	EC50 ([2]; Human rhinovirus sp., HRV25, H1-HeLa): 162 nM; EC50 [2, 11]: 58 nM
CCOC(=O)/C=C/[C@H](C[C@@H]1CCNC1=O)NC(=O)[C@@H]1CCc2c(Cl)cc(NC(=O)c3cc(C)on3)c(=O)n21 [Compound 39, trans-(3′S,3′″S,4S)-4-({8′-Chloro-6′-[(5″-methylisoxazole-3″-carbonyl)amino]-5′-oxo-1′,2′,3′,5′-tetrahydroindolizine-3′-carbonyl}amino)-5-(2′″-oxopyrrolidin-3′″-yl)-pent-2-enoic Acid Ethyl Ester]	> 10000 nM	> 10000 nM	> 10000 nM	42 nM	88 nM	200000 M⁻¹ s⁻¹	40 nM	> 10000 nM	> 10000 nM	> 10000 nM	> 10000 nM	> 10000 nM	> 10000 nM	> 10000 nM	16 nM	39 nM	48 nM	57 nM	107 nM	48 nM	EC50 [2, 11]: 17 nM
C#CC[C@@H](C(=O)N[C@H](/C=C/C(=O)OC1CCCC1)C[C@@H]1CCNC1=O)n1cccc(NC(=O)c2cc(C)on2)c1=O [Compound 40, trans-(2′S,3′″″S,4S)-4-[2′-(3″-{[1′″-(5″″-Methylisoxazol-3″″-yl)methanoyl]amino}-2′″-oxo-2′″H-pyridin-1′″-yl)pent-4″-ynoylamino]-5-(2′″″-oxopyrrolidin-3′″″-yl)pent-2-enoic Acid Cyclopentyl Ester]	> 10000 nM					186000 M⁻¹ s⁻¹	27 nM	> 10000 nM	> 10000 nM	> 10000 nM	> 10000 nM	> 10000 nM	> 10000 nM	> 10000 nM	52 nM	56 nM	219 nM	177 nM	490 nM	163 nM	CC50 (H1-HeLa cells; line of HRV-11): > 10000 nM; CC50 (H1-HeLa cells; line of HRV-13): > 10000 nM; CC50 (H1-HeLa cells; line of HRV-19): > 10000 nM; CC50 (H1-HeLa cells; line of HRV-23): > 10000 nM; CC50 (H1-HeLa cells; line of HRV-78): > 10000 nM; CC50 (H1-HeLa cells; line of HRV-Hanks): > 10000 nM; EC50 ([2]; H1-HeLa, HRV-23, read-out: EC50): 55 nM; EC50 ([2]; Human rhinovirus sp., H1-HeLa, HRV-Hanks, read-out: EC50): 115 nM; EC50 ([2]; Human rhinovirus sp., HRV11, H1-HeLa, HRV-11, read-out: EC50): 6 nM; EC50 ([2]; Human rhinovirus sp., HRV13, H1-HeLa, HRV-13, read-out: EC50): 148 nM; EC50 ([2]; Human rhinovirus sp., HRV19, H1-HeLa, HRV-19, read-out: EC50): 60 nM; EC50 ([2]; Human rhinovirus sp., HRV78, H1-HeLa, HRV-78, read-out: EC50): 123 nM; EC50 [2, 11]: 83 nM
C#CC[C@@H](C(=O)N[C@H](/C=C(\C)C(=O)OCC)C[C@@H]1CCNC1=O)n1cccc(NC(=O)c2cc(C)on2)c1=O [Compound 44, trans-(2′S,3′″″S,4S)-2-Methyl-4-[2′-(3″-{[1′″-(5″″-methylisoxazol-3″″-yl)methanoyl]amino}-2′″-oxo-2′″H-pyridin-1′″-yl)pent-4″-ynoylamino]-5-(2′″″-oxopyrrolidin-3′″″-yl)pent-2-enoic Acid Ethyl Ester]	> 10000 nM		> 10000 nM		562 nM	12500 M⁻¹ s⁻¹	1460 nM	> 10000 nM			> 10000 nM	> 10000 nM	> 10000 nM		1180 nM			1090 nM	1220 nM	> 1000 nM	
